Consider 2 compounds from patent publication US20250281625A1, “FOLIC ACID-CONJUGATED AMINOCLAY BASED NANOCOMPOSITES FOR THE SITE-SPECIFIC DRUG DELIVERY, METHOD FOR THEIR PREPARATION AND THEIR USE” (Dongguk University Industry-Academic Cooperation Foundation, priority 2021, published 2025).

For data set [1] the following is noted: in water; cited from earlier work.
In data set [2] the test system is colitis-induced mice. Description: in vivo efficacy in dextran sodium sulfate colitis-induced mice. As to conditions: oral, 10 mg/kg once daily for 8 days, DSS colitis mice, day 9. Also noted: species or system C57BL/6 mice. As for the experimental part:
(§1) Before inducing colitis, 8-week-old C57BL/6 mice were raised under standard conditions at 21° C. to 22° C. in a 12-hour light/dark cycle for 7 days. On the day of the experiment (Day 0), mice were randomly divided into five groups: a healthy control group and four experimental groups [dextran sodium sulfate administration group (DSS), dextran sodium sulfate and phosphate-buffer saline (PBS) administration group (DSS+PBS), dextran sodium sulfate and infliximab administration group (DSS+IFX), and dextran sodium sulfate and EFA-AC-IFX administration group (DSS+EFA-AC-IFX)]. Colitis was induced in mice by adding 2.0% (w/v) dextran sodium sulfate to drinking water.
To investigate the therapeutic effect of nanoparticles, colitis-induced mice in each experimental group were orally administered with 200 μL of PBS, infliximab (10 mg/kg), or EFA-AC-IFX (10 mg/kg) once daily for 8 days. On Day 8, drinking water containing dextran sodium sulfate was replaced with pure water. […]
To evaluate the therapeutic efficacy of EFA-AC-IFX for colitis, mouse colon tissues were histologically analyzed using hematoxylin-eosin (H&E) staining. […] The severity of colitis in each colonic section was assessed using a blinded approach by measuring mucosal features, such as epithelial damage, mucosal edema, and inflammatory cell infiltration of the mucosa.

Data set [3] concerns TNF-α. Put plainly: TNF-α concentration in colonic samples of colitis-induced mice (ELISA). It counts as in vivo, C57BL/6 mice. The note with it: oral, 10 mg/kg once daily for 8 days, DSS colitis mice, compared to control group. As for the experimental part: as §1
To investigate the therapeutic effect of nanoparticles, colitis-induced mice in each experimental group were orally administered with 200 μL of PBS, infliximab (10 mg/kg), or EFA-AC-IFX (10 mg/kg) once daily for 8 days. On Day 8, drinking water containing dextran sodium sulfate was replaced with pure water. During the experiment, changes in body weight, stool consistency, and the presence of blood in the stool or anus were checked daily. […]
The level of TNF-α, one of the important inflammatory mediators involved in the pathogenesis of ulcerative colitis, is increased by inducing colitis in mice. Therefore, the concentration of TNF-α in colonic samples obtained from each experimental group was quantified using a TNF-α ELISA kit.

As for `Nc1nc2ncc(CNc3ccc(C(=O)N[C@@H](CCC(=O)O)C(=O)O)cc3)nc2c(=O)[nH]1` [folic acid], the water solubility in data set [1] is reported as 0.0016 mg/g. Compound Infliximab registered a colon length in data set [2] of 6.2±0.25 cm. Moreover, the “concentration of TNF-α in colonic samples” value in data set [3] was “significantly increased compared to the control group”.
